Reference: US20130184272A1, “DIABETES THERAPEUTIC AGENT” (TAKEDA PHARMACEUTICAL COMPANY LIMITED, priority 2010, published 2013)

How the values were obtained:
myogenin = experiment: Muscle-related gene expression in myoblast: myogenin; assay type: cell-based, Mouse; details: for Myogenin/36B4 expression level: 10 μM, 1 day, relative value
[1] = system: Male FisherF344 rats fed with a high-fat diet; experiment: Antiobesity action and dyslipidemia improving effect in high-fat diet-loaded rat; assay type: in vivo
Procedure: Male FisherF344 rats (CLEA Japan, Inc.) fed with a high-fat diet (45 kcal % fat, D12451, research diet) for 38 weeks from 5 weeks of age were used. They were bred with a powder high-fat diet (D12451M) for 4 weeks for acclimation, measured for body weight, body composition, amount of ingestion and plasma component, and divided into 3 groups (6 per group) without difference between them. The plasma components (total cholesterol, triglyceride, glucose concentration) were measured by HITACHI automatic analyzer 7070. As the body composition, total fat mass, body fat percentage, lean body mass of lower leg, and visceral fat mass were measured by X-ray CT apparatus (LCT-100A, LaTheta). The compound of Reference Example 1 was suspended in aqueous methylcellulose solution and orally administered repeatedly to 2 groups of the rats divided into 3 groups at 0.03 mg/kg or 0.1 mg/kg once a day for 14 days. A 0.5% aqueous methylcellulose solution was orally administered similarly to the remaining one group and used as a control group. On the administration completion day, the blood was drawn again from the tail vein, and plasma levels of total cholesterol, triglyceride, glucose, insulin and leptin, and body weight and body composition (total fat mass, body fat percentage, lean body mass of lower leg, visceral fat mass) were measured. The amount of ingestion was calculated from the amount of the feed given and the amount left, and the total of the test period was calculated. The numerical values in Table 11 and Table 12 show mean±standard deviation at n=5-6 (n is the number of rats).

C3H10T1/2 cells = experiment: Adipocyte differentiation suppressive action; assay type: cell-based; details: for cell number (number of nucleus/visual field) / lipid droplet area (lipid droplet stained area/cell number): DM, 9 days
Procedure: C3H10T1/2 cells (Dainippon Pharmaceutical Co., Ltd.) were cultured in a growth medium until confluence. 1 μM dexamethasone, 0.5 mM 3-isobutyl-1-methylxanthine and 5 μg/mL insulin were added to the medium, and the cells were cultured for 3 days. The medium was exchanged with a growth medium added with 4 μg/mL insulin and the cells were cultured for 3 more days and cultured in a growth medium for 3 days. When the compound was added, it was added for 9 days after reaching confluence and the cells were cultured. The cells were fixed with 3.7% formalin, lipid droplet was stained with 100 nM BODIPY 493/503 (Molecular Probes), nucleus was stained with 2 μM Hoechst33258 (Acros Organics), and analyzed by IN Cell analyzer (GE Healthcare). The data of Table 15 show mean±standard deviation at n=4 (n is the number of samples).

C/EBPα = experiment: Adipocyte-related gene expression level: C/EBPα; assay type: cell-based
Procedure: (§1) In the same manner as in Example 10, the cells were cultured, and total RNA was extracted using Rneasy96 kit (Qiagen) from the cell immediately before and 6 days after addition of […] of the compound of Reference Example 1. cDNA was prepared from the total RNA using TaqMan reverse transcription reagent (Applied Biosystems), quantitative PCR was performed by ABI PRISM7000 or 7000 using TaqMan Universal PCR master mix (Applied Biosystems) and commercially available primers, and the expression level of each gene was determined. The commercially available primers used were as follows. • C/EBPα (Mm00514283_s1, TaqMan Gene Expression Assays, Applied Biosystems) • C/EBPβ (Mm00843434_s1, TaqMan Gene Expression Assays, Applied Biosystems) • KLF15 (Mm00517792_m1, TaqMan Gene Expression Assays, Applied Biosystems) • PPARγ (Mm00440945_m1, TaqMan Gene Expression Assays, Applied Biosystems)
(§2) The expression level was amended by the amount of 36B4 (Takeda Pharmaceutical Company Limited) in the same manner as in Example 3, and the relative values to the value immediately before addition of each gene compound as 1 are shown in Table 16. The data in Table 16 show mean±standard deviation at n=3-4 (n is the number of samples).

C/EBPβ = experiment: Adipocyte-related gene expression level: C/EBPβ; assay type: cell-based
Procedure: as §1, §2

KLF15 = experiment: Adipocyte-related gene expression level: KLF15; assay type: cell-based
Procedure: as §1, §2

PPARγ = experiment: Adipocyte-related gene expression level: PPARγ; assay type: cell-based
Procedure: as §1, §2

[2] = system: Normal male C57BL/6J mice; experiment: Data of normal mouse; assay type: in vivo
Procedure: Normal male C57BL/6J mice (CLEA Japan, Inc.) were bred allowing free ingestion of both feed and water. The mice were bred for acclimation for 1 week from 16-week-old. The body weight was measured, the mice were divided into 2 groups (5 per group) to be uniform, and the compound of Reference Example 1 (0.03 mg/kg) was orally administered to one group for 2 weeks. On the last day, the body weight, and plasma levels of total cholesterol, glucose, lactic acid, GOT, GPT and neutral lipid were measured. The data of Table 19 show mean±standard deviation at n=5 (n is the number of samples).

[3] = 0.03 mg/kg oral once a day, 14 days
[4] = 0.1 mg/kg oral once a day, 14 days
[5] = 10 μm [sic] of compound, 6 days after addition, value immediately before addition = 1
[6] = normal mice, 0.03 mg/kg oral, 2 weeks

## Cc1ncccc1Oc1sc(C(N)=O)c2c1-c1c(cnn1C)CC2 [Ref. Ex. 1, 1-methyl-8-[(2-methylpyridin-3-yl)oxy]-4,5-dihydro-1H-thieno[3,4-g]indazole-6-carboxamide]
myogenin; C2C12 cells cultured in a differentiation medium
  expression of myogenin (in words): promoted
myogenin; DM (differentiation medium)
  Myogenin/36B4 expression level: 3.81 ± 0.55
myogenin; GM (growth medium)
  Myogenin/36B4 expression level: 0.03 ± 0.00
[1]; [3]
  amount of ingestion (g/2 weeks): 165.8 ± 13.9 g/2 weeks
  body fat percentage, change rate (%): 3.5 ± 1.5 %
  body weight: 460.8 ± 15.3 g
  body weight, amount of change: -3.8 ± 7.5 g
  lean body mass (g) of lower leg: 82.9 ± 5.2 g
  lean body mass of lower leg, amount of change: 8.4 ± 1.7 g
  plasma glucose: 142.3 ± 5.6 mg/dL
  plasma insulin: 5.2 ± 1.0 ng/mL
  plasma leptin: 1.2 ± 0.4 ng/dL
  plasma total cholesterol: 102.3 ± 12.6 mg/dL
  plasma triglyceride: 242.4 ± 92.5 mg/dL
  total fat mass: 138.0 ± 16.6 g
  total fat mass, amount of change: -17.5 ± 8.8 g
  visceral fat mass: 53.8 ± 6.1 g
  visceral fat mass, amount of change: -4.3 ± 3.4 g
[1]; [4]
  amount of ingestion (g/2 weeks): 127.9 ± 21.2 g/2 weeks
  body fat percentage (%): 26.9 ± 2.6 %
  body fat percentage, change rate (%): −7.1 ± 1.1 %
  body weight: 446.5 ± 38.1 g
  body weight, amount of change: -19.5 ± 11.0 g
  lean body mass (g) of lower leg: 84.5 ± 6.9 g
  lean body mass of lower leg, amount of change: 9.8 ± 4.2 g
  plasma glucose: 146.3 ± 5.9 mg/dL
  plasma insulin: 2.8 ± 1.1 ng/mL
  plasma leptin: 0.6 ± 0.4 ng/dL
  plasma total cholesterol: 77.3 ± 9.6 mg/dL
  plasma triglyceride: 100.1 ± 43.1 mg/dL
  total fat mass: 120.5 ± 18.2 g
  total fat mass, amount of change: -38.1 ± 6.7 g
  visceral fat mass: 47.2 ± 9.0 g
  visceral fat mass, amount of change: -11.0 ± 2.9 g
[1]; administration at 0.1 mg/kg
  body weight (in words): clear body weight decreasing action
C3H10T1/2 cells; compound 0.1 nM
  cell number (number of nucleus/visual field): 303 ± 28
  lipid droplet area (lipid droplet stained area/cell number): 9625
C3H10T1/2 cells; compound 1 nM
  cell number (number of nucleus/visual field): 295 ± 15
  lipid droplet area (lipid droplet stained area/cell number): 5703
C3H10T1/2 cells; compound 10 nM
  cell number (number of nucleus/visual field): 318 ± 9
  lipid droplet area (lipid droplet stained area/cell number): 2010
C3H10T1/2 cells; adipocyte differentiation
  cell number (in words): without affecting
  intracellular lipid accumulation (in words): decreased
C/EBPα; [5]
  C/EBPα expression level (amended by 36B4): 1.6 ± 0.5
C/EBPα; C3H10T1/2 cell
  expression level of C/EBPα (in words): decreased
C/EBPβ; [5]
  C/EBPβ expression level (amended by 36B4): 1.3 ± 0.5
C/EBPβ; C3H10T1/2 cell
  expression level of C/EBPβ (in words): decreased
KLF15; [5]
  KLF15 expression level (amended by 36B4): 1.4 ± 0.4
KLF15; C3H10T1/2 cell
  expression level of KLF15 (in words): decreased
PPARγ; [5]
  PPARγ expression level (amended by 36B4): 4.5 ± 0.9
PPARγ; C3H10T1/2 cell
  expression level of PPARγ (in words): decreased
[2]; normal C57BL/6J mice
  normal body weight and plasma markers (in words): does not affect
[2]; [6]
  body weight (g) on last day: 28.03 ± 0.84 g
  plasma GOT (U/L): 63.4 ± 31.1 U/L
  plasma GPT (U/L): 29.4 ± 3.9 U/L
  plasma glucose: 155.5 ± 11.9 mg/dL
  plasma lactic acid: 49.3 ± 16.5 mg/dL
  plasma neutral fats: 78.0 ± 31.0 mg/dL
  plasma total cholesterol: 81.1 ± 10.2 mg/dL
  total amount of ingestion (g/2 weeks): 55.6 ± 2.5 g/2 weeks
